Assays:
Assay in all cases: Kinase profiling
Format in all cases: biochemical
TSF1 = molecular target: T1, TSF1 (Homo sapiens, UniProt O75716)
T1 construct: purchased ProQinase (Freiburg, Germany)
Protocol: (§1) The analysis was performed by ProQinase (Freiburg, Germany).

EPHA7 = molecular target: T2, EPHA7 (Homo sapiens, UniProt Q15375)
T2 construct: purchased ProQinase (Freiburg, Germany)
Protocol: as §1

EPHA1 = molecular target: T3, EPHA1 (Homo sapiens, UniProt P21709)
T3 construct: purchased ProQinase (Freiburg, Germany)
T3 sequence (P21709 26-976): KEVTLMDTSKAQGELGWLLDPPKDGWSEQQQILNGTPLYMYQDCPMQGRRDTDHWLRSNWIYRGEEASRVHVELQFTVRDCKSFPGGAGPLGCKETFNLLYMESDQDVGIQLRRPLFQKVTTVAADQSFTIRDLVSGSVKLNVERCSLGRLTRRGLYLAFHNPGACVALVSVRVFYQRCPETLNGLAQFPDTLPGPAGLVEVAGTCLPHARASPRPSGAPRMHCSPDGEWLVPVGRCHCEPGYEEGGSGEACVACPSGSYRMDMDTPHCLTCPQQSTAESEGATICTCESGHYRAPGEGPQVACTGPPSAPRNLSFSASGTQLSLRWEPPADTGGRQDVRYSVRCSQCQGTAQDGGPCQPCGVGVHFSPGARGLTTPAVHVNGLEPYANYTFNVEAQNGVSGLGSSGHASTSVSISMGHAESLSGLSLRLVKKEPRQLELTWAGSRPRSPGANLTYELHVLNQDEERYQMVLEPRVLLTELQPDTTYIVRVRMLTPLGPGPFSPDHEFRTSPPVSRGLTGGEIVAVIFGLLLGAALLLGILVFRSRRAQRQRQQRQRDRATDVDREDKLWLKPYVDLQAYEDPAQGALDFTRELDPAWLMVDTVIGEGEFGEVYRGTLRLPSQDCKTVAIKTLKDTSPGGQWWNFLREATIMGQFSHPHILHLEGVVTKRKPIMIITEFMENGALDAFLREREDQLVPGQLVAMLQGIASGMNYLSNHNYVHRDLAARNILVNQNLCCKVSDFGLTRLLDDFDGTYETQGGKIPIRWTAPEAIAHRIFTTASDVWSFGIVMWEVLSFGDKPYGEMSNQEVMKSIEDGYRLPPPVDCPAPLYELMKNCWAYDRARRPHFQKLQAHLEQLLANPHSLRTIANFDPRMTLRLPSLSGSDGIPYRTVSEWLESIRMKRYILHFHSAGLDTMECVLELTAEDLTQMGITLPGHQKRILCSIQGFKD
Protocol: as §1

MAP4K4 = molecular target: T4, MAP4K4 (Homo sapiens, UniProt O95819)
T4 construct: purchased ProQinase (Freiburg, Germany)
T4 sequence (O95819 whole entry): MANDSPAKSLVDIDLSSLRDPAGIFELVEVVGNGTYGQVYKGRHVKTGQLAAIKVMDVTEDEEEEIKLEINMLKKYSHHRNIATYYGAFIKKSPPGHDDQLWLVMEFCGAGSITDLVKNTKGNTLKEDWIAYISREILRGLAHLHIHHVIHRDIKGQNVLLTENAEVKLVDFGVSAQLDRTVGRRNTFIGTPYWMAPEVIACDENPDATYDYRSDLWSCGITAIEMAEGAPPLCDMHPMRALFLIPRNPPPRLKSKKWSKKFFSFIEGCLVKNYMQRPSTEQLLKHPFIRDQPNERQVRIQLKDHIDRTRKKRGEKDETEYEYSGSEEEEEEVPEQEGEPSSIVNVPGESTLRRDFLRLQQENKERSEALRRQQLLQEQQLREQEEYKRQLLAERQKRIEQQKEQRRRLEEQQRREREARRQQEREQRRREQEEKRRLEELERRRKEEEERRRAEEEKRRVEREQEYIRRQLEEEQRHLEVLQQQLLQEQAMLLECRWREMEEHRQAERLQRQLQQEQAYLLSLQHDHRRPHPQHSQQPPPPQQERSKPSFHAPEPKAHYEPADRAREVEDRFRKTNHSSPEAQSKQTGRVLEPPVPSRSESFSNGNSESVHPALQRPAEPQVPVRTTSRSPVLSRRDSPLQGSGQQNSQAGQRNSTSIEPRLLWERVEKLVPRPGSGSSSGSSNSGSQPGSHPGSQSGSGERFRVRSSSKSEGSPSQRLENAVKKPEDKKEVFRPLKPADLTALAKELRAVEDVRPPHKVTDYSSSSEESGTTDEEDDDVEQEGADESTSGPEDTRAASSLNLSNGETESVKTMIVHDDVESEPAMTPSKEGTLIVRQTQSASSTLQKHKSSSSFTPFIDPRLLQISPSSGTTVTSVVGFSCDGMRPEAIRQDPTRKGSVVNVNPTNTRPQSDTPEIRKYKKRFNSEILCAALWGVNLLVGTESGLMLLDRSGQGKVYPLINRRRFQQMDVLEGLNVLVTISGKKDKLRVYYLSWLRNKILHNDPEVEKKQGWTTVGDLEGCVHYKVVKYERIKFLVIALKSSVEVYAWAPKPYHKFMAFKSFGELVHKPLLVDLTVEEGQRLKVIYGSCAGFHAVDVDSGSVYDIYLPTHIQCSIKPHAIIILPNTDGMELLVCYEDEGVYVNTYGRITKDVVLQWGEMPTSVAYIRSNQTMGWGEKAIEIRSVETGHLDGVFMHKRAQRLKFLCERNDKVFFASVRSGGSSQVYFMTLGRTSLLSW
Protocol: as §1

ERBB2 = molecular target: T5, ERBB2 (Homo sapiens, UniProt P04626)
T5 construct: purchased ProQinase (Freiburg, Germany)
Protocol: as §1

MAP3K1 = molecular target: T6, MAP3K1 (Homo sapiens, UniProt Q13233)
T6 construct: purchased ProQinase (Freiburg, Germany)
T6 sequence (Q13233 whole entry): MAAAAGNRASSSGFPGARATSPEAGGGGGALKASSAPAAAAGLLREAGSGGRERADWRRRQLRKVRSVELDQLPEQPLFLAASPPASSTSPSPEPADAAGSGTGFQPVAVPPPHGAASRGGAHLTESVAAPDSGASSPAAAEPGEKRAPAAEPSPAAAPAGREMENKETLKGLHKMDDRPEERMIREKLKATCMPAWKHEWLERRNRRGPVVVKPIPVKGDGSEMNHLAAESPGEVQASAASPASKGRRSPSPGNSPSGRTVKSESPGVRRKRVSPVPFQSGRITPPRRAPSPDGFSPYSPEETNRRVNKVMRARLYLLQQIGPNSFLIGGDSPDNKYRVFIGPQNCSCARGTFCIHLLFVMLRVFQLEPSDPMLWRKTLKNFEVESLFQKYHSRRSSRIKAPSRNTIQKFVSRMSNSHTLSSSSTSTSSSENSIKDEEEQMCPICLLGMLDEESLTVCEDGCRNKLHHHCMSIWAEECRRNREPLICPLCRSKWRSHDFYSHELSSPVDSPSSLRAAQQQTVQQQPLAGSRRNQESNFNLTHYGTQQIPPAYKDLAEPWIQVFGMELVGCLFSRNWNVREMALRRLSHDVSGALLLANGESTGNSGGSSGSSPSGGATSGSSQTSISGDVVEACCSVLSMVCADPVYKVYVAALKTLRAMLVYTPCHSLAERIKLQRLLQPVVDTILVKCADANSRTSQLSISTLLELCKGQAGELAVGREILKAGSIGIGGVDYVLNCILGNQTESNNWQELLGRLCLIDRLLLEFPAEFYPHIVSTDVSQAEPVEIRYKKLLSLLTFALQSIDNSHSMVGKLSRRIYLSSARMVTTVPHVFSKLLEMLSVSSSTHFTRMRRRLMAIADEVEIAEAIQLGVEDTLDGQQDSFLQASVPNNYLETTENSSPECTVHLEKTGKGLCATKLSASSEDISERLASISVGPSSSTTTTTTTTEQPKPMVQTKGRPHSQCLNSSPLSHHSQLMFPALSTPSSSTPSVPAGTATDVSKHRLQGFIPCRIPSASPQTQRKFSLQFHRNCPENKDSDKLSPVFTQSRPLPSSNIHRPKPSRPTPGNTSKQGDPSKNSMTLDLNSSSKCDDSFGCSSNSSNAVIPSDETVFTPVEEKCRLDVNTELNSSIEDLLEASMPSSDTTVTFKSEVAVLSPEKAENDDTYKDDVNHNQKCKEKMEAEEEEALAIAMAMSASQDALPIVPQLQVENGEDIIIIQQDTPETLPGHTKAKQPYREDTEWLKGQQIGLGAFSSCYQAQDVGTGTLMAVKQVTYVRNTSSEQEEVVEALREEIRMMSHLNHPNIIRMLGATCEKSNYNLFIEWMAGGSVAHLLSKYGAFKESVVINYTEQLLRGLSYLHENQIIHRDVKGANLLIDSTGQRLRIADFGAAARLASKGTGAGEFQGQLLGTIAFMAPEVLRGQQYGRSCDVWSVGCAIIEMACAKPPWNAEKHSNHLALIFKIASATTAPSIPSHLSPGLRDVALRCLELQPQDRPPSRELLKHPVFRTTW
Protocol: as §1

MERTK = molecular target: T7, MERTK (Homo sapiens, UniProt Q12866)
T7 construct: purchased ProQinase (Freiburg, Germany)
T7 sequence (Q12866 21-999): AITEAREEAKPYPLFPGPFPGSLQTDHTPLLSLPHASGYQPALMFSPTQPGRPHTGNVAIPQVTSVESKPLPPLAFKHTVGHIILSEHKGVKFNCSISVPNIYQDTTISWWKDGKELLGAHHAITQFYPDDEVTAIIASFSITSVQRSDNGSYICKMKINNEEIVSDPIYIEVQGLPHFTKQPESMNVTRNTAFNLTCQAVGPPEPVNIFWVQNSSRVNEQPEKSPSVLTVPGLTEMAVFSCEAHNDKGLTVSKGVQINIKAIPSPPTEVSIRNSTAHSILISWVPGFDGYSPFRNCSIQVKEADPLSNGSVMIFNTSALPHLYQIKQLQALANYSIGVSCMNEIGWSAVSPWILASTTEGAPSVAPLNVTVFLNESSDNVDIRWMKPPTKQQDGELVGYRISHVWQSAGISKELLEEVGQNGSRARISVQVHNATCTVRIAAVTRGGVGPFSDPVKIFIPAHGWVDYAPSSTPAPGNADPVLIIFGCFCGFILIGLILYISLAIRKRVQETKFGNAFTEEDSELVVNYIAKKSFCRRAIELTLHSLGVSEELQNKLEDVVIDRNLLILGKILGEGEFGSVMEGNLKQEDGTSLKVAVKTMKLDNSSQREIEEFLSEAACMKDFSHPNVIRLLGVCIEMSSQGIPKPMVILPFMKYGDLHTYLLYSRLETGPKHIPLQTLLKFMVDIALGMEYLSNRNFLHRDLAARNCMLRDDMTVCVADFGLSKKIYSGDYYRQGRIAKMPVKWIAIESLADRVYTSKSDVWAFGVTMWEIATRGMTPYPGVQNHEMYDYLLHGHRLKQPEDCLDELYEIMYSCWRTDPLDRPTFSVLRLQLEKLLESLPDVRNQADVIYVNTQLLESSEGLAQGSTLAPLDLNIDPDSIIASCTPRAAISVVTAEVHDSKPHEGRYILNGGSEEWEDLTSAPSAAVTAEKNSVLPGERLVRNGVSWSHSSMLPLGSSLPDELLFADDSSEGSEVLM
Protocol: as §1

T2 sequence (Q15375 28-998): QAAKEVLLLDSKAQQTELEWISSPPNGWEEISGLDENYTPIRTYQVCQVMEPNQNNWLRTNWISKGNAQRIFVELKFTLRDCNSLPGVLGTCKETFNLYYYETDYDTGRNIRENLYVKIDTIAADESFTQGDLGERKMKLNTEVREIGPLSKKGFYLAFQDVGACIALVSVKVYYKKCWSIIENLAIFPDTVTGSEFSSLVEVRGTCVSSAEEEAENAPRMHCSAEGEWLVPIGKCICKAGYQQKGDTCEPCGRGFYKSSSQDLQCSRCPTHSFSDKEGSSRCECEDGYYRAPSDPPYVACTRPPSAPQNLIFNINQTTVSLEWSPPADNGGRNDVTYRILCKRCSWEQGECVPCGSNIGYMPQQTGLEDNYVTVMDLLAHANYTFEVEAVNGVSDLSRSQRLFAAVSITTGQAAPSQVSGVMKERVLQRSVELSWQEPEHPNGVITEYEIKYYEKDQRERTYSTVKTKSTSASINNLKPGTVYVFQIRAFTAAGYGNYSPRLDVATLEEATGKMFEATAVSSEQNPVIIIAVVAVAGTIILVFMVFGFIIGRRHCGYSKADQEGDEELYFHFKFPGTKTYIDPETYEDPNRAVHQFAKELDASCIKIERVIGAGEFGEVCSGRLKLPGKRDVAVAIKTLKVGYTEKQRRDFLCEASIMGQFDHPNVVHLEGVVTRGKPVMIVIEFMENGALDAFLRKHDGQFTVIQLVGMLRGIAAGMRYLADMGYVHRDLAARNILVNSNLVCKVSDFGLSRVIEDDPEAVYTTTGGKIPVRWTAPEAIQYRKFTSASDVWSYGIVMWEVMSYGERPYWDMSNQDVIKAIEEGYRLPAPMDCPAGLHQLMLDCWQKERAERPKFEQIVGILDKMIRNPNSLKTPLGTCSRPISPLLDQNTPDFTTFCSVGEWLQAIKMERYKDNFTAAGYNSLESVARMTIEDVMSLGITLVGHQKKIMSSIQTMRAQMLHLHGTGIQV
T1 sequence (O75716 whole entry): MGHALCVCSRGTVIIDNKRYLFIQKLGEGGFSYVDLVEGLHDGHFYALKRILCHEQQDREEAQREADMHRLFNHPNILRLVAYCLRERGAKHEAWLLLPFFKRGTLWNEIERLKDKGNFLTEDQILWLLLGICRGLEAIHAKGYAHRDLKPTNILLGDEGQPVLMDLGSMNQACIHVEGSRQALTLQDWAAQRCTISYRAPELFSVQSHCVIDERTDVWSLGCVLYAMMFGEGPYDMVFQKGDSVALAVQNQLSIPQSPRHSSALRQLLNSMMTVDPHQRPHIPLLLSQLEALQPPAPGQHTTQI

SMILES | Residual activity (TSF1; 1.0E-05 M) | Residual activity (TSF1; 1.0E-06 M) | Residual activity (EPHA7; 1.0E-05 M) | Residual activity (EPHA7; 1.0E-06 M) | Residual activity (EPHA1; 1.0E-05 M) | Residual activity (EPHA1; 1.0E-06 M) | Residual activity (MAP4K4; 1.0E-05 M) | Residual activity (MAP4K4; 1.0E-06 M) | Residual activity (ERBB2; 1.0E-05 M) | Residual activity (ERBB2; 1.0E-06 M) | Residual activity (MAP3K1; 1.0E-05 M) | Residual activity (MAP3K1; 1.0E-06 M) | Residual activity (MERTK; 1.0E-05 M) | Residual activity (MERTK; 1.0E-06 M)
O=C(Cc1ccccc1)Nc1ccc(F)c(Nc2ccc3c(c2)CCCCC3=O)c1 [Compound 100] | 88 % of control | 107 % of control | 101 % of control | 103 % of control | 71 % of control | 83 % of control | 95 % of control | 89 % of control | 79 % of control | 96 % of control | 83 % of control | 96 % of control | 73 % of control | 103 % of control
O=C(Nc1ccc(F)c(Nc2ccc3c(c2)CCCCC3=O)c1)c1cccc(F)c1 [Compound 109] | 94 % of control | 97 % of control | 96 % of control | 85 % of control | 85 % of control | 91 % of control | 85 % of control | 94 % of control | 86 % of control | 99 % of control | 93 % of control | 96 % of control | 85 % of control | 101 % of control

From paper PMC9030254, “Target Hopping from Protein Kinases to PXR: Identification of Small-Molecule Protein Kinase Inhibitors as Selective Modulators of Pregnane X Receptor from TüKIC Library” (Cells, 2022)
